# Measured values as given in patent US20230218573A1, “INDOLE COMPOUNDS FOR THE TREATMENT OF NEURODEGENERATIVE DISEASES” (GALYAN BIO, INC., priority 2020, published 2023).
# Entries after “also recorded” stand apart in the source; their conditions may differ.
# Key:
# [1] = tested on: R6/2 mice of Huntington's disease; assay: Rotarod latency in R6/2 mice; type: in vivo; conditions: for rotarod performance versus vehicle treated R6/2 mice: 33 mg/kg i.p. QD
# Protocol: Methods - Total of 20 female and male R6/2 mice and 10 female and male wild-type littermate control mice (WT) were used in the study. The mice were genotyped and the R6/2 mice were divided into different treatment groups based on their litter and baseline body weight. The treatment with Vehicle or Compound 22(33 mg/kg; 5 ml/kg, i.p. QD) was started at 4 weeks of age after the baseline behavioral tests (FIG. 10). Body weights were measured at 3 weeks of age and twice a week until the end of the study.
# The experimental groups were: • Group 1) 10 wild-type mice (mixed gender) treated with Vehicle (5 ml/kg, i.p., QD) starting at 4 weeks of age • Group 2) 10 R6/2 mice (mixed gender) treated with Vehicle (5 ml/kg, i.p., QD) starting at 4 weeks of age • Group 3) 10 R6/2 mice (mixed gender) treated with Compound 22 (33 mg/kg; 5 ml/kg, i.p. QD) starting at 4 weeks of age
# 44.3.7 - Compound Delivery and Dosing - Treatment with Compound 22 (33 mg/kg; 5 ml/kg, i.p. QD) or Vehicle was started at age week 4 and continued until the 12 weeks of age. The test articles were handled and stored and the dose formulations were prepared according to detailed instructions provided by the Sponsor.
# 44.3.9.1 - Rotarod - The Rotarod test was perfomed at 4 (pre-treatment baseline), 6, 8 and 10 weeks of age. Each testing day included a training trial of 5 min at 4 RPM on the Rotarod apparatus (AccuScan Instruments, Columbus, USA). 30 minutes later, the animals were tested for 3 consecutive accelerating trials of 6 min with the speed changing from 0 to 40 RPM over 360 seconds and with an inter-trial interval of at least 30 min. The latency to fall from the rod was recorded. Mice remaining on the rod for more than 360 s were removed and their time scored as 360 sec.
# 10 female R6/2 mice and 10 female wild-type littermate control mice (F1 generation) were bred by Charles River Laboratories, Sulzfeld, Germany by mating (F0 generation) WT males (C57BL/6J; systematically re-infused with pedigreed JAX mice, stock 000664) with ovarian transferred (OT) TG females (JAX, stock 006494). […]
# [2] = tested on: LC3 (autophagic flux); assay: Autophagic flux and LC3 stained area in STHdh 111/111 cells; type: cell-based, mouse
# Protocol: Staining - Cells were permeabilized with 0.3% Triton X-100 in 4° C. PBS (pH 7.4 from ThermoFisher) for 10 minutes. Then the cells were washed two times with 4° C. PBS. Subsequently, cells are blocked with 3% NGS (normal goat serum from Thermo Fisher) in 4° C. PBS for 1 hour. Cells were incubated with primary antibodies in blocking buffer (PBS, 3% NGS, 0.02% NaN3) over night at 4° C. Primary antibodies were mouse antipolyglutamine monoclonal antibody 3B5H10 (Sigma-Aldrich) at 1:250 dilution and Guinea Pig anti-MAP2 polyclonal antibody (Synaptic Systems) at 1:500 dilution. […]
# Fluorescence Imaging - Imaging sessions were performed on a confocal microscope system (Carl Zeiss Microscopy) equipped with a dual spinning disk unit (Yokogawa). […] The fluorescence images obtained of the immunofluorescence labelled tissue sections were quantified with the help of the “Image Processing and Analysis in Java” or short ImageJ software distributed under the GNU General Public License by the NIH (Rueden, C.T. et al., BMC Bioinformatics. 2017 Nov 29;18(1):529), i.e. the edition used was the Fiji distribution (Schindelin, J. et al., Nature methods. 2012 Jun 28;9(7):676-82). […]
# Autophagic flux was calculated as the area stained with LC3 antibody per cell in STHdh 111/111 with autophagy inhibitor NH4Cl minus area stained with LC3 antibody per cell in STHdh 111/111 without the autophagy inhibitor NH4Cl.
# [3] = tested on: Olig2; assay: Nanostring gene expression in STHdh 111/111 cells: Olig2; type: cell-based, mouse; conditions: treated STHdh 111/111 (Q111-10), 48 h; in comparison to untreated STHdh 111/111
# Protocol: (§1) Gene expression of certain transcripts of interest were measured using Nanostring Technology. […] Some STHdh 7/7 and STHdh 111/111 cell samples were not heat shocked and some wells were treated with Compound 22 at the indicated concentration on for 48 hours (Table 12). Some STHdh 7/7 and STHdh 111/111 cell samples were heat shocked for 3 hours some wells were treated with Compound 22 at the indicated concentration on for 48 hours (Table 13). Cells are washed with PBS, trypsinised, and gathered in a 15 ml falcon tube. After a short spin down for 3 minutes at 300 g, the cell pellet was washed with PBS once, before it was frozen down in liquid nitrogen. RNA was extracted with a standard protocol. The nCounter® Mouse Neuropathology Panel (Nanostring, Seattle) was used for gene expression analysis according to the manufacturer’s protocols.
# [4] = tested on: NGFR; assay: Nanostring gene expression in STHdh 111/111 cells: NGFR; type: cell-based, mouse; conditions: treated STHdh 111/111 (Q111-10), 48 h; in comparison to untreated STHdh 111/111
# Protocol: as §1
structure (smiles),measurement,setting,value
Cc1[nH]c2ccc(C(=O)NCCN(C(C)C)C(C)C)cc2c1C [Compound 22],improvement of latency to fall in comparison to untreated model mice,"[1]; R6/2 mice, 10 weeks of age",94%
same,rotarod performance versus vehicle treated R6/2 mice,"[1]; female R6/2 mice, 10 weeks of age, 33 mg/kg",significantly improved rotarod performance; also recorded: almost doubled the latency to fall
same,rotarod performance versus vehicle treated R6/2 mice,[1]; pooled genders or males,no significant differences
same,autophagic flux,"[2]; STHdh 111/111, LC3 area with NH4Cl minus without NH4Cl",positive autophagic flux
same,LC3 stained area,[2]; STHdh 111/111 neurons,decreased
same,Olig2 expression,[3],doubled
same,NGFR expression increased by,[4],60%
